Results as given in US20240207427A1, “SELECTIVE DRUG RELEASE FROM INTERNALIZED CONJUGATES OF BIOLOGICALLY ACTIVE COMPOUNDS” (priority 2021, published 2024).
Like-named read-outs stand apart in the source and are kept apart here.

Columns and labels:
Type in all cases: cell-based
[1] = test system: renal carcinoma cells (786-O); test: In vitro potency (CellTiter-Glo, 96 h), 786-O; conditions: Homo sapiens, 786-0, 96 h
Outline: (§1)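 Four-day continuous exposure at 37 °C to serially diluted ADC or free camptothecin payload, in RPMI 1640 with 20% FBS after 24 h pre-plating. Luminescent signal gave IC50 (ng/mL; nmol/L).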

[2] = test system: B-lymphocyte cancer cells (SU-DHL4); test: In vitro potency (CellTiter-Glo, 96 h), SU-DHL-4; conditions: Homo sapiens, SU-DHL-4, 96 h
Outline: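 RPMI 1640/20% FBS cultures, log phase, plated 24 h → ADC titration → 4 d, 37 °C → luminescence → IC50, ng/mL.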

[3] = test system: breast cancer cells (MDA-MB-231); test: In vitro potency (CellTiter-Glo, 96 h), MDA-MB-231; conditions: Homo sapiens, MDA-MB-231, 96 h
Outline: as §1

[4] = test system: non-small-cell lung cancer cells (Calu1); test: In vitro potency (CellTiter-Glo, 96 h), Calu1; conditions: Homo sapiens, Calu-1, 96 h
Outline: (§2)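 Authenticated lines (STR), used within 2 months of resuscitation, were seeded 24 h before treatment. Exposure to ADC dilutions lasted 96 h at 37 °C in RPMI 1640 with 20% FBS; viability was quantified luminescently.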

[5] = test system: pancreatic cancer cells (BxPC3); test: In vitro potency (CellTiter-Glo, 96 h), BxPC3; conditions: Homo sapiens, BXPC-3, 96 h
Outline: as §1

Ls174T cells = test: In vitro potency (CellTiter-Glo, 96 h), Ls174T; conditions: Homo sapiens, LS174T
Outline: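 Cells in log-phase growth are plated in RPMI 1640/20% FBS for 24 h. Serially diluted conjugates are then added, and plates are kept at 37 °C for 4 days before ATP-based luminescence gives growth inhibition.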

[6] = test system: Hodgkin's lymphoma cells (L540cy); test: In vitro potency (CellTiter-Glo, 96 h), L540cy
Outline: as §1

melanoma cells (A2058) = test: In vitro potency (CellTiter-Glo, 96 h), A2058; conditions: Homo sapiens, A2058, 96 h
Outline: as §2

[7] = test system: acute myeloid leukemia cells (MOLM-13); test: In vitro potency (CellTiter-Glo, 96 h), MOLM-13; conditions: Homo sapiens, MOLM-13, 96 h
Outline: as §1

[8] = test system: anaplastic large cell lymphoma cells (Karpas299); test: In vitro potency (CellTiter-Glo, 96 h), Karpas299; conditions: Homo sapiens, KARPAS-299, 96 h
Outline: as §1

[9] = test system: anaplastic large cell lymphoma cells (DEL); test: In vitro potency (CellTiter-Glo, 96 h), DEL
Outline: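 Cells in log-phase growth seeded 24 h in RPMI 1640 with 20% FBS, then exposed to serially diluted ADC or CPT free drug for 96 h at 37 °C. Growth inhibition read by CellTiter-Glo luminescence; IC50 reported in ng/mL or nmol/L.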

[10] = test system: anaplastic large cell lymphoma cells (DELBVR); test: In vitro potency (CellTiter-Glo, 96 h), DELBVR
Outline: as §1

[11] = read-out: 786-O IC50, camptothecin free drug, 96 h
[12] = read-out: SU-DHL-4 IC50, camptothecin free drug, 96 h
[13] = read-out: MDAMB231 IC50, camptothecin free drug, 96 h
[14] = read-out: BxPC3 IC50, camptothecin free drug, 96 h
[15] = 96 h, read-out: Ls174T IC50, camptothecin free drug, 96 h
[16] = read-out: L540cy IC50, camptothecin free drug, 96 h
[17] = read-out: MOLM-13 IC50, camptothecin free drug, 96 h
[18] = read-out: Karpas299 IC50, camptothecin free drug, 96 h
[19] = read-out: DEL IC50, camptothecin free drug, 96 h
[20] = read-out: DELBVR IC50, camptothecin free drug, 96 h
[21] = CPT free drugs, Table 24, CellTiter-Glo after 96 h exposure, read-out: IC50 (nmol/L) 786-O
[22] = CPT free drugs, Table 24, CellTiter-Glo after 96 h exposure, read-out: IC50 (nmol/L) SU-DHL-4
[23] = CPT free drugs, Table 24, CellTiter-Glo after 96 h exposure, read-out: IC50 (nmol/L) MDAMB231
[24] = CPT free drugs, Table 24, CellTiter-Glo after 96 h exposure, read-out: IC50 (nmol/L) Calu1
[25] = CPT free drugs, Table 24, CellTiter-Glo after 96 h exposure, read-out: IC50 (nmol/L) BxPC3
[26] = CPT free drugs, Table 24, CellTiter-Glo after 96 h exposure, read-out: IC50 (nmol/L) Ls174T
[27] = CPT free drugs, Table 24, CellTiter-Glo after 96 h exposure, read-out: IC50 (nmol/L) L540cy
[28] = CPT free drugs, Table 24, CellTiter-Glo after 96 h exposure, read-out: IC50 (nmol/L) A2058
[29] = CPT free drugs, Table 24, CellTiter-Glo after 96 h exposure, read-out: IC50 (nmol/L) MOLM-13
[30] = CPT free drugs, Table 24, CellTiter-Glo after 96 h exposure, read-out: IC50 (nmol/L) Karpas299
[31] = CPT free drugs, Table 24, CellTiter-Glo after 96 h exposure, read-out: IC50 (nmol/L) DEL
[32] = CPT free drugs, Table 24, CellTiter-Glo after 96 h exposure, read-out: IC50 (nmol/L) DELBVR

## CC[C@@]1(O)C(=O)OCc2c1cc1n(c2=O)Cc2c-1nc1cc3c(cc1c2CN(C)C)OCO3 [Compound 7ae]
[1]; [11]
  IC50: 39 nmol/L
[2]; [12]
  IC50: 23 nmol/L
[3]; [13]
  IC50: 164 nmol/L
[4]; read-out: Calu1 IC50
  IC50: 555 nmol/L
[5]; [14]
  IC50: 48 nmol/L
Ls174T cells; [15]
  IC50: 46 nmol/L
[6]; [16]
  IC50: 20 nmol/L
Melanoma cells (A2058); read-out: A2058 IC50
  IC50: 11 nmol/L
[7]; [17]
  IC50: 165 nmol/L
[8]; [18]
  IC50: 42 nmol/L
[9]; [19]
  IC50: 8 nmol/L
[10]; [20]
  IC50: 14 nmol/L

## CC[C@@]1(O)C(=O)OCc2c1cc1n(c2=O)Cc2c-1nc1cc3c(cc1c2CNCCCS(C)(=O)=O)OCO3 [Compound 7c]
[1]; [11]
  IC50: 5 nmol/L
[2]; [12]
  IC50: 3 nmol/L
[3]; [13]
  IC50: 31 nmol/L
[4]; read-out: Calu1 IC50
  IC50: 91 nmol/L
[5]; [14]
  IC50: 5 nmol/L
Ls174T cells; [15]
  IC50: 4 nmol/L
[6]; [16]
  IC50: 2 nmol/L
Melanoma cells (A2058); read-out: A2058 IC50
  IC50: 2 nmol/L
[7]; [17]
  IC50: 4 nmol/L
[8]; [18]
  IC50: 5 nmol/L
[9]; [19]
  IC50: 1 nmol/L
[10]; [20]
  IC50: 2 nmol/L

## CC[C@@]1(O)C(=O)OCc2c1cc1n(c2=O)Cc2c-1nc1cc3c(cc1c2CN1CCC(NC(=O)OC(C)(C)C)CC1)OCO3 [Compound 7y]
[1]; camptothecin free drug, 96 h, read-out: 786-O IC50
  IC50: 31 nmol/L
[2]; camptothecin free drug, 96 h, read-out: SU-DHL-4 IC50
  IC50: 23 nmol/L
[3]; camptothecin free drug, 96 h, read-out: MDAMB231 IC50
  IC50: 140 nmol/L
[4]; camptothecin free drug, 96 h, read-out: Calu1 IC50
  IC50: 896 nmol/L
[5]; camptothecin free drug, 96 h, read-out: BxPC3 IC50
  IC50: 28 nmol/L
Ls174T cells; camptothecin free drug, 96 h, read-out: Ls174T IC50
  IC50: 17 nmol/L
[6]; camptothecin free drug, read-out: L540cy IC50
  IC50: 15 nmol/L
Melanoma cells (A2058); camptothecin free drug, 96 h, read-out: A2058 IC50
  IC50: 7 nmol/L
[7]; camptothecin free drug, 96 h, read-out: MOLM-13 IC50
  IC50: 68 nmol/L
[8]; camptothecin free drug, 96 h, read-out: Karpas299 IC50
  IC50: 36 nmol/L
[9]; camptothecin free drug, read-out: DEL IC50
  IC50: 8 nmol/L
[10]; camptothecin free drug, read-out: DELBVR IC50
  IC50: 14 nmol/L

## CC[C@@]1(O)C(=O)OCc2c1cc1n(c2=O)Cc2c-1nc1cc(C)c(F)cc1c2CN [Compound 2aa]
[1]; [21]
  IC50: 265 nmol/L
[2]; [22]
  IC50: 227 nmol/L
[3]; [23]
  IC50: > 1000 nmol/L
[4]; [24]
  IC50: > 1000 nmol/L
[5]; [25]
  IC50: > 1000 nmol/L
Ls174T cells; [26]
  IC50: 240 nmol/L
[6]; [27]
  IC50: > 1000 nmol/L
Melanoma cells (A2058); [28]
  IC50: 130 nmol/L
[7]; [29]
  IC50: > 1000 nmol/L
[8]; [30]
  IC50: 380 nmol/L
[9]; [31]
  IC50: 82 nmol/L
[10]; [32]
  IC50: 87 nmol/L

## CC[C@@]1(O)C(=O)OCc2c1cc1n(c2=O)Cc2c-1nc1cc3c(cc1c2CNCCCO)OCO3 [Compound 7o]
[1]; [11]
  IC50: 52 nmol/L
[2]; [12]
  IC50: 27 nmol/L
[3]; [13]
  IC50: 275 nmol/L
[4]; read-out: Calu1 IC50
  IC50: 839 nmol/L
[5]; [14]
  IC50: 47 nmol/L
Ls174T cells; [15]
  IC50: 25 nmol/L
[6]; [16]
  IC50: 26 nmol/L
Melanoma cells (A2058); read-out: A2058 IC50
  IC50: 16 nmol/L
[7]; [17]
  IC50: 115 nmol/L
[8]; [18]
  IC50: 42 nmol/L
[9]; [19]
  IC50: 10 nmol/L
[10]; [20]
  IC50: 19 nmol/L

## CC[C@@]1(O)C(=O)OCc2c1cc1n(c2=O)Cc2c-1nc1cc(OC)c(C)c(F)c1c2CN [Compound 2z]
[1]; [21]
  IC50: > 1000 nmol/L
[2]; [22]
  IC50: > 1000 nmol/L
[3]; [23]
  IC50: > 1000 nmol/L
[4]; [24]
  IC50: > 1000 nmol/L
[5]; [25]
  IC50: > 1000 nmol/L
Ls174T cells; [26]
  IC50: > 1000 nmol/L
[6]; [27]
  IC50: > 1000 nmol/L
Melanoma cells (A2058); [28]
  IC50: > 1000 nmol/L
[7]; [29]
  IC50: > 1000 nmol/L
[8]; [30]
  IC50: > 1000 nmol/L
[9]; [31]
  IC50: > 1000 nmol/L
[10]; [32]
  IC50: > 1000 nmol/L

## CC[C@@]1(O)C(=O)OCc2c1cc1n(c2=O)Cc2c-1nc1cc3c(cc1c2CN)OCC3 [Compound 2m]
[1]; read-out: IC50 (nmol/L) 786-O, CPT free drugs, Table 24, CellTiter-Glo after 96 h exposure
  IC50: 55 nmol/L
[2]; read-out: IC50 (nmol/L) SU-DHL-4, CPT free drugs, Table 24, CellTiter-Glo after 96 h exposure
  IC50: 22.4 nmol/L
[3]; read-out: IC50 (nmol/L) MDAMB231, CPT free drugs, Table 24, CellTiter-Glo after 96 h exposure
  IC50: 35 nmol/L
[4]; read-out: IC50 (nmol/L) Calu1
  IC50: 249 nmol/L
[5]; read-out: IC50 (nmol/L) BxPC3, CPT free drugs, Table 24, CellTiter-Glo after 96 h exposure
  IC50: 128 nmol/L
Ls174T cells; 96 h, read-out: IC50 (nmol/L) Ls174T, CPT free drugs, Table 24, CellTiter-Glo after 96 h exposure
  IC50: 17 nmol/L
[6]; read-out: IC50 (nmol/L) L540cy, CPT free drugs, Table 24, CellTiter-Glo after 96 h exposure
  IC50: 17.8 nmol/L
Melanoma cells (A2058); read-out: IC50 (nmol/L) A2058
  IC50: 16.2 nmol/L
[7]; read-out: IC50 (nmol/L) MOLM-13, CPT free drugs, Table 24, CellTiter-Glo after 96 h exposure
  IC50: 60.7 nmol/L
[8]; read-out: IC50 (nmol/L) Karpas299, CPT free drugs, Table 24, CellTiter-Glo after 96 h exposure
  IC50: 57.2 nmol/L
[9]; read-out: IC50 (nmol/L) DEL, CPT free drugs, Table 24, CellTiter-Glo after 96 h exposure
  IC50: 11 nmol/L
[10]; read-out: IC50 (nmol/L) DELBVR, CPT free drugs, Table 24, CellTiter-Glo after 96 h exposure
  IC50: 14 nmol/L

## CC[C@@]1(O)C(=O)OCc2c1cc1n(c2=O)Cc2c-1nc1ccc(C(F)(F)F)cc1c2CN [Compound 2g]
[1]; [21]
  IC50: 102 nmol/L
[2]; [22]
  IC50: 60 nmol/L
[3]; [23]
  IC50: 79 nmol/L
[4]; [24]
  IC50: 755 nmol/L
[5]; [25]
  IC50: 258 nmol/L
Ls174T cells; [26]
  IC50: 65.3 nmol/L
[6]; [27]
  IC50: 62 nmol/L
Melanoma cells (A2058); [28]
  IC50: 37 nmol/L
[7]; [29]
  IC50: 598 nmol/L
[8]; [30]
  IC50: 221 nmol/L
[9]; [31]
  IC50: 17.6 nmol/L
[10]; [32]
  IC50: 33.5 nmol/L

## CC[C@@]1(O)C(=O)OCc2c1cc1n(c2=O)Cc2c-1nc1cc3c(cc1c2CNCC(O)CO)OCO3 (stereo partly drawn) [Compound 7x]
[1]; [11]
  IC50: 88 nmol/L
[2]; [12]
  IC50: 41 nmol/L
[3]; [13]
  IC50: 523 nmol/L
[4]; read-out: Calu1 IC50
  IC50: > 1000 nmol/L
[5]; [14]
  IC50: 79 nmol/L
Ls174T cells; [15]
  IC50: > 1000 nmol/L
[6]; [16]
  IC50: 32 nmol/L
Melanoma cells (A2058); read-out: A2058 IC50
  IC50: 18 nmol/L
[7]; [17]
  IC50: 574 nmol/L
[8]; [18]
  IC50: 54 nmol/L
[9]; [19]
  IC50: 16 nmol/L
[10]; [20]
  IC50: 20 nmol/L
